Values quoted from earlier work in patent US20230131859A1, “BIOCONVERSION OF OLEUROPEIN” (SOCIETE DES PROUITS NESTLES S.A., priority 2017, published 2023).

What was measured:
[1] = compared with hydroxytyrosol
[2] = in vivo

hydroxytyrosol acetate
solubility in the lipophilic phases [1]: more soluble in the lipophilic phases than hydroxytyrosol

CC=C1C(O)OC=C(C(=O)OC)C1CC(=O)OCCc1ccc(O)c(O)c1 (centres unmarked) [oleuropein aglycone, 3,4-dihydroxyphenylethanol-elenolic acid]
clearance from the plasma [2]: slower clearance from the plasma compared with hydroxytyrosol and oleuropein
